Measured values: ChEMBL document CHEMBL6178013, “Ferroptosis of Cancer Cells via Tubulin Degradation and Mitochondrial Dysfunction: A Novel Mechanism of Anticancer Effect for Small-Molecule Anion Transporters” (J Med Chem, 2025)
Active and inactive are the calls of the source. The rule behind the calls is not given here.

Columns and labels:
Chloride [1] = assay: Binding affinity to chloride anions assessed as anionophoric activity in egg-yolk L-alpha-phosphatidylcholine liposome model measured per lipid by pyranine-based fluorescent assay
Chloride [2] = assay: Binding affinity to chloride anions assessed as fold increase in anionophoric activity in egg-yolk L-alpha-phosphatidylcholine liposome model measured per lipid by pyranine-based fluorescent assay relative to m-Bimbe
Chloride [3] = assay: Binding affinity to chloride anions assessed as chloride efflux in egg-yolk L-alpha-phosphatidylcholine liposome model measured per lipid in presence of intravesicular NaCl/extravesicular NaNO3 by chloride ion selective electrode technique
Chloride [4] = assay: Binding affinity to chloride anions assessed as binding constant at 1:1 stoichiometry of compound and tetrabutylammonium chloride salt by 1H NMR spectroscopy
Chloride [5] = assay: Binding affinity to chloride anions assessed as chloride efflux in egg-yolk L-alpha-phosphatidylcholine liposome model harboring intravesicular LiCl/extravesicular NaNO3
Chloride [6] = assay: Binding affinity to chloride anions assessed as chloride efflux in egg-yolk L-alpha-phosphatidylcholine liposome model harboring intravesicular NaCl/extravesicular Na2SO4
Chloride [7] = assay: Binding affinity to chloride anions assessed as chloride efflux in egg-yolk L-alpha-phosphatidylcholine liposome model harboring intravesicular NaCl/extravesicular NaHCO3
Chloride [8] = assay: Binding affinity to chloride anions in human HeLa cells assessed as increase in chloride influx at 1 uM measured after 15 mins by inverted fluorescence microscopy; assay type: cell-based
HeLa [9] = assay: Cytotoxicity against human HeLa cells assessed as decrease in cell viability cultured in chloride-containing extracellular medium at 0.05 to 5 uM incubated for 12 hrs; assay type: functional, cell-based; conditions: dose 0.05-5 µM
HeLa [10] = assay: Effect on ferroptosis pathway in human HeLa cells at 10 uM incubated for 48 hrs by KEGG analysis; assay type: functional, cell-based
HeLa [11] = assay: Cytotoxicity against human HeLa cells assessed as decrease in cell viability at 0.01 to 10 uM pretreated with Z-VAD-FMK followed by compound addition by MTT assay; assay type: functional, cell-based; conditions: dose 0.01-10 µM
HeLa [12] = assay: Cytotoxicity against human HeLa cells assessed as decrease in cell viability at 0.01 to 10 uM pretreated with 3-MA followed by compound addition by MTT assay; assay type: functional, cell-based; conditions: dose 0.01-10 µM
[13] = molecular target: T1, Tubulin beta (Homo sapiens) (UniProt P68371+Q9H4B7+Q13509+P04350+Q3ZCM7+P07437+Q13885+Q9BVA1+Q9BUF5+A6NNZ2); assay: Induction of beta-tubulin degradation in human HeLa cells incubated for 48 hrs by immunoblotting analysis; assay type: cell-based; conditions: dose 0.1-1 µM
HeLa [14] = assay: Induction of beta III-tubulin degradation in human HeLa cells incubated for 48 hrs by immunoblotting analysis; assay type: cell-based; conditions: dose 0.1-1 µM
[15] = molecular target: T1, Tubulin beta (Homo sapiens); assay: Induction of beta-tubulin degradation in human HeLa cells at 1 uM preincubated with MG132 followed by compound addition measured after 24 hrs by immunoblotting analysis; assay type: cell-based
HeLa [16] = assay: Induction of mitochondrial membrane permeability in human HeLa cells at 0.625 to 5 uM incubated for 24 hrs by JC-1 staining based analysis; assay type: functional, cell-based; conditions: dose 0.625-5 µM
HeLa [17] = assay: Induction of mitochondrial membrane permeability in human HeLa cells assessed as red fluorescence at 1 uM incubated for 24 hrs by JC-1 staining based analysis (reference value: 98.5 %); assay type: functional
HeLa [18] = assay: Induction of mitochondrial membrane permeability in human HeLa cells assessed as green fluorescence at 0.5 uM incubated for 24 hrs by JC-1 staining based analysis (reference value: 1.5 %); assay type: functional
HeLa [19] = assay: Induction of lipid peroxidation in human HeLa cells assessed as decrease in GSH level incubated for 12 hrs by absorbance based assay; assay type: functional, cell-based; conditions: dose 0.1-1 µM
HeLa [20] = assay: Induction of lipid peroxidation in human HeLa cells assessed as increase in MDA level incubated for 12 hrs by absorbance based assay; assay type: functional, cell-based; conditions: dose 0.1-1 µM
HeLa [21] = assay: Induction of lipid peroxidation in human HeLa cells assessed as increase in ROS generation incubated for 24 hrs by DCFH-DA probe based fluorescence microscopy; assay type: functional, cell-based; conditions: dose 0.1-1 µM
HeLa [22] = assay: Induction of ferroptosis in human HeLa cells assessed as increase in caspase-3 activation at 0.1 to 1 uM incubated for 24 hrs by immunoblotting analysis; assay type: functional, cell-based; conditions: dose 0.1-1 µM
HeLa [23] = assay: Induction of ferroptosis in human HeLa cells assessed as increase in PARP-1 cleavage at 0.1 to 1 uM incubated for 24 hrs by immunoblotting analysis; assay type: functional, cell-based; conditions: dose 0.1-1 µM
HeLa [24] = assay: Induction of cell cycle arrest in human HeLa cells assessed as accumulation of cells at S phase at 0.5 uM incubated for 24 hrs by PI staining based flow cytometry relative to control; assay type: functional
[25] = MRT (0 to t) in male CD-1 mouse at 1 mg/kg, iv measured for 0.083 to 48 hrs by HPLC/MS/MS analysis; assay type: ADME, organism-based; conditions: in vivo, time 0.083-48 hrs
[26] = MRT (0 to infinity) in male CD-1 mouse at 1 mg/kg, iv measured for 0.083 to 48 hrs by HPLC/MS/MS analysis; assay type: ADME, organism-based; conditions: in vivo, time 0.083-48 hrs
[27] = Half life in male CD-1 mouse at 1 mg/kg, iv measured for 0.083 to 48 hrs by HPLC/MS/MS analysis; assay type: ADME, organism-based; conditions: in vivo, time 0.083-48 hrs
[28] = Tmax in male CD-1 mouse at 1 mg/kg, iv measured for 0.083 to 48 hrs by HPLC/MS/MS analysis; assay type: ADME, organism-based; conditions: in vivo, time 0.083-48 hrs
[29] = MRT (0 to infinity) in male CD-1 mouse at 1 mg/kg, ip measured for 0.083 to 48 hrs by HPLC/MS/MS analysis; assay type: ADME, organism-based; conditions: in vivo, time 0.083-48 hrs
[30] = Half life in male CD-1 mouse at 1 mg/kg, ip measured for 0.083 to 48 hrs by HPLC/MS/MS analysis; assay type: ADME, organism-based; conditions: in vivo, time 0.083-48 hrs
HeLa [31] = assay: Antitumor activity against human HeLa cells xenografted in male Balb/C nude mouse assessed as nuclear fragmentation at 10 to 20 mg/kg, ip administered on every 2 days measured after 18 days by H and E staining based analysis; assay type: functional, organism-based; conditions: dose 10-20 mg/kg, time 18.0 day
HeLa [32] = assay: Antitumor activity against human HeLa cells xenografted in male Balb/C nude mouse assessed as decrease in beta III-tubulin level at 10 to 20 mg/kg, ip administered on every 2 days measured after 18 days by immunoblotting analysis; assay type: functional, organism-based; conditions: dose 10-20 mg/kg, time 18.0 day
[33] = Toxicity in male Balb/C nude mouse xenografted with human HeLa cells assessed as abnormalities in liver at 10 to 20 mg/kg, ip administered on every 2 days measured after 18 days by H and E staining based analysis; assay type: organism-based; conditions: in vivo, 432 h, dose 10-20 mg/kg, time 18 day
[34] = Toxicity in male Balb/C nude mouse xenografted with human HeLa cells assessed as abnormalities in lung at 10 to 20 mg/kg, ip administered on every 2 days measured after 18 days by H and E staining based analysis; assay type: organism-based; conditions: in vivo, 432 h, dose 10-20 mg/kg, time 18 day
[35] = Drug concentration in plasma of C57BL/6 mouse at 5 mg/kg, iv measured after 4 hrs by HPLC/MS/MS analysis; assay type: ADME, organism-based
[36] = Drug concentration in brain of C57BL/6 mouse at 5 mg/kg, iv measured after 4 hrs by HPLC/MS/MS analysis; assay type: ADME, organism-based; conditions: read-out: Ct
[37] = Toxicity in male Balb/C nude mouse xenografted with human HeLa cells assessed as abnormalities in brain at 10 to 20 mg/kg, ip administered on every 2 days measured after 18 days by H and E staining based analysis; assay type: organism-based; conditions: in vivo, 432 h, dose 10-20 mg/kg, time 18 day

Fc1cc(-c2nc3c(C(F)(F)F)cc(C(F)(F)F)cc3[nH]2)cc(-c2nc3c(C(F)(F)F)cc(C(F)(F)F)cc3[nH]2)c1
EC50 (Chloride [1]): 4.16 10^-2mol%
fold change (FC) (Chloride [2]): 2.32 10^2No_unit
EC50 (Chloride [3]): 0.64 mol%
K (Chloride [4]): 5250 M⁻¹
Activity (Chloride [5]): Active
Activity (Chloride [6]): inactive
Activity (Chloride [7]): Active
Activity (Chloride [8]): inactive
Activity (HeLa [9]): Active
Activity (HeLa [10]): Active
Activity (HeLa [11]): Not active; Z-Vad-Fmk Exhibited Partial Protection For Cells
Activity (HeLa [12]): Active
Activity [13]: Dose-dependent-effect
Activity (HeLa [14]): Dose-dependent-effect
Activity [15]: inactive
Activity (HeLa [16]): Active
Activity (HeLa [17]): 33.2%
Activity (HeLa [18]): 44.9%
Activity (HeLa [19]): Dose-dependent-effect
Activity (HeLa [20]): Dose-dependent-effect
Activity (HeLa [21]): Dose-dependent-effect
Activity (HeLa [22]): Active
Activity (HeLa [23]): Active
Activity (HeLa [24]): 36%
MRT last [25]: 2.64 h
MRT inf [26]: 3.14 h
half-life [27]: 5.11 h
Tmax [28]: 4.8 min
MRT inf [29]: 14.8 h
half-life [30]: 19.9 h
Activity (HeLa [31]): Active
Activity (HeLa [32]): Active
Activity [33]: Non-toxic
Activity [34]: Non-toxic
concentration at 4 h [35]: 99.2 µM
concentration at 4 h [36]: 1.3 µM
Activity [37]: Non-toxic
